Read-outs that look alike come from different tables or passages of the source.
Columns and labels:
[1] = system: NCI-H226 (Non-Small Cell Lung Cancer); test: NCI five-dose SRB assay; assay type: cell-based; settings: Homo sapiens, 48 h
HCC-2998 (Colon Cancer) = test: NCI five-dose SRB assay; assay type: cell-based; settings: Homo sapiens, 48 h
[2] = system: Colon Cancer cell lines (MG_MID); test: NCI five-dose SRB assay; assay type: cell-based; settings: Homo sapiens, 48 h
SF-539 (CNS Cancer) = test: NCI five-dose SRB assay; assay type: cell-based; settings: Homo sapiens, 48 h
SNB-19 (CNS Cancer) = test: NCI five-dose SRB assay; assay type: cell-based; settings: Homo sapiens, 48 h
LOX IMVI (Melanoma) [3] = test: NCI five-dose SRB assay; assay type: cell-based; settings: Homo sapiens, 48 h
SK-MEL-28 (Melanoma) = test: NCI five-dose SRB assay; assay type: cell-based; settings: Homo sapiens, 48 h
SK_MEL-5 (Melanoma) = test: NCI five-dose SRB assay; assay type: cell-based; settings: Homo sapiens, SK-MEL-5, 48 h
UACC-257 (Melanoma) = test: NCI five-dose SRB assay; assay type: cell-based; settings: Homo sapiens, 48 h
UACC-62 (Melanoma) = test: NCI five-dose SRB assay; assay type: cell-based; settings: Homo sapiens, 48 h
OVCAR-8 (Ovarian Cancer) = test: NCI five-dose SRB assay; assay type: cell-based; settings: Homo sapiens, 48 h
[4] = system: NCI/ADR-RES (Ovarian Cancer); test: NCI five-dose SRB assay; assay type: cell-based; settings: Homo sapiens, 48 h
[5] = system: Ovarian Cancer cell lines (MG_MID); test: NCI five-dose SRB assay; assay type: cell-based; settings: Homo sapiens, 48 h
786-0 (Renal Cancer) = test: NCI five-dose SRB assay; assay type: cell-based; settings: Homo sapiens, 48 h
A498 (Renal Cancer) = test: NCI five-dose SRB assay; assay type: cell-based; settings: Homo sapiens, 48 h
[6] = system: Renal Cancer cell lines (MG_MID); test: NCI five-dose SRB assay; assay type: cell-based; settings: Homo sapiens, 48 h
HS 578T (Breast Cancer) = test: NCI five-dose SRB assay; assay type: cell-based; settings: Homo sapiens, 48 h
BT-549 (Breast Cancer) = test: NCI five-dose SRB assay; assay type: cell-based; settings: Homo sapiens, 48 h
[7] = system: MDA-MB-468 (Breast Cancer); test: NCI five-dose SRB assay; assay type: cell-based; settings: Homo sapiens, 48 h
MCF-7 cell line = test: Time-dependent viability test (MTT); assay type: cell-based, human; settings: MCF-7, 10 µM
Procedure: A strong correlation was detected between the treatment time and an anti-proliferative potential. The cytotoxic effect of this compound develops after […] of incubation. This feature may explain the difference of cell viability compared with the NCI results which were obtained at 48th hour of incubation of cells with derivative 4. […] The result obtained at 48th hour of treatment of the MCF-7 cells with the compound 4 in concentration 10 µM correlates to some extent with data of the NCI screening. At that time point, 43% of the cells died.
Time-dependent viability data were obtained as a result of 24, 48, 72, and 124 h MTT tests performed on the MCF-7 cells treated with the compound 4 (10 μM).

[8] = system: MCF-7 breast cancer cells; test: Soft agar drug sensitivity assay; assay type: cell-based, human; settings: MCF-7, 1 and 5 µM, day 12
Procedure: It was proposed that testing of drugs in a 3-dimensional (3D) format, such as soft agar, is more similar to the in vivo cellular microenvironment and the results of such testing have a good correlation with in vivo conditions.
Five hundred MCF-7 breast cancer cells in 0.5% sterile agar (Bacto-Agar, Difco Laboratories) were layered on a preformed 0.8% sterile agar layer using 24 well plate (CytoONE, STARLAB International GmbH, Hamburg, Germany). The cells in agar were treated with the compound 4 at concentrations of 1 and 5 µM/mL. Doxorubicin was used as a positive control. The 0.5% agar layer included DMEM medium containing 10% FBS, cells, and tested compounds. The 0.8% agar layer included DMEM medium. Colonies with a size of >50 µm were counted under the microscope and photographed after 12 days.

[9] = system: MCF-7 breast cancer cells; test: Mitochondrial membrane potential, JC-1 (flow cytometry); assay type: cell-based, human; settings: MCF-7, 5 µM, 24 h, control 5.1 ± 0.7%
Procedure: A decrease in the mitochondrial membrane potential (MMP, ΔΨm) is one of the earliest changes observed at apoptosis. […] The MCF-7 cells had depolarized mitochondria, reaching 25.3 ± 1.5% and 24.7 ± 0.4% of the cell population treated with the compound 4 and 7, respectively. In the control, there were only 5.1 ± 0.7% cells with a decreased ΔΨm.
Disruption of the MMP was assessed using the lipophilic cationic probe 5,5,6,6-tetrachloro-1,1,3,3-tetraethylbenzimidazolcarbocyanine iodide (JC-1 MitoScreen kit; BD Biosciences San Diego, CA, USA), as described previously. The entire assay was performed according to the manufacturer’s instructions provided with the purchased kit. […] Briefly, unfixed MCF-7 cells were washed and resuspended in the PBS supplemented with the JC-1 dye. Then, cells were incubated for 15 min at room temperature (RT) in the dark, washed, and resuspended in the PBS for the immediate BD FACSCanto II flow cytometry analysis.

MCF-7 cells = test: Chemical synthetic lethality: MTT after preincubation with MGMT inhibitor Lomeguatrib; assay type: cell-based, human; settings: for IC50: Homo sapiens, MCF7, 72 h MTT
[10] = system: NCI-H460 (Non-Small Cell Lung Cancer); test: NCI one-dose SRB assay; settings: 10 μM, 48 h
Procedure: (§1) Tested compounds were added to the culture at a single concentration (10^−5 M) and the cultures were incubated for 48 h. End point determinations were made with a protein binding dye, Sulphorhodamine B (SRB). […] The percentage growth was evaluated spectrophotometrically versus controls not treated with test agents.

HCT-15 (Colon Cancer) = test: NCI one-dose SRB assay; settings: 10 μM, 48 h
Procedure: as §1

LOX IMVI (Melanoma) [11] = test: NCI one-dose SRB assay; settings: 10 μM, 48 h
Procedure: Primary anticancer assays (Table 3) on a panel of 60 cancer cell lines at one dose-assay (10^−5 M) were performed according to the NCI protocol, as described elsewhere [31, 32, 33, 34, 35].
A primary anticancer assay was performed on a panel of approximately sixty human tumor cell lines derived from nine neoplastic diseases, in accordance with the protocol of the Drug Evaluation Branch, National Cancer Institute, Bethesda [31, 32, 33, 34, 35]. Tested compounds were added to the culture at a single concentration (10^−5 M) and the cultures were incubated for 48 h. End point determinations were made with a protein binding dye, Sulphorhodamine B (SRB). […] The percentage growth was evaluated spectrophotometrically versus controls not treated with test agents.

A549 (lung) = test: MTT assay of cell viability; settings: Homo sapiens, A549, 72 h
KB3-1 (cervix) = test: MTT assay of cell viability; settings: Homo sapiens, KB 3-1, 72 h, KB3-1; 72 h of incubation, M ± SD
[12] = system: human epidermal keratinocytes of HaCaT line; test: MTT assay of cell viability; settings: 72 h
[13] = system: panel of cancer cell lines; test: MTT assay, summary over the tumor cell lines; settings: Homo sapiens, 72 h, read-out: IC50 toward tumor cells (depending on tumor cell line)

SMILES: CCOC(=O)c1ccc(NC(=O)CSC(CC(=O)c2sc(Nc3ccccn3)nc2C)c2ccccc2F)cc1 (centres unmarked) [Compound 4, Ethyl 4-[[2-[1-(2-Fluorophenyl)-3-[4-methyl-2-(2-pyridylamino)thiazol-5-yl]-3-oxopropyl]sulfanylacetyl]amino]benzoate]
- GI50 [1]: 2.52 µM
- GI50 (HCC-2998 (Colon Cancer)): 23.1 µM
- GI50 [2]: 51.6 µM
- GI50 (SF-539 (CNS Cancer)): 32.5 µM
- GI50 (SNB-19 (CNS Cancer)): 36.9 µM
- GI50 (LOX IMVI (Melanoma) [3]): 0.312 µM
- GI50 (SK-MEL-28 (Melanoma)): 38.7 µM
- GI50 (SK_MEL-5 (Melanoma)): 18.6 µM
- GI50 (UACC-257 (Melanoma)): 38.4 µM
- GI50 (UACC-62 (Melanoma)): 16.1 µM
- GI50 (OVCAR-8 (Ovarian Cancer)): 53.6 µM
- GI50 [4]: 24.1 µM
- GI50 [5]: 41.1 µM
- GI50 (786-0 (Renal Cancer)): 24.8 µM
- GI50 (A498 (Renal Cancer)): 69.2 µM
- GI50 [6]: 33.4 µM
- GI50 (HS 578T (Breast Cancer)): 14.9 µM
- GI50 (BT-549 (Breast Cancer)): 14.7 µM
- GI50 [7]: 4.24 µM
- cells killed (MCF-7 cell line; 24 h): 19.9%
- cells died (MCF-7 cell line; 48 h): 43%
- cells died (MCF-7 cell line; 124 h): 90%
- size and number of colonies in soft agar [8]: reduces the size and number of colonies
- cells with depolarized mitochondria (decreased ΔΨm) [9]: 25.3 ± 1.5%
- IC50 (MCF-7 cells; MCF-7, 3 h preincubation with Lomeguatrib, read-out: IC50 with the MGMT inhibitor): 0.72 µM
- IC50 (MCF-7 cells; MCF-7, compound alone, read-out: IC50): 2.28 µM
- enhancement of sensitivity by Lomeguatrib preincubation (MCF-7 cells; MCF-7): 3 times
- combination effect with the MGMT inhibitor (MCF-7 cells; MCF-7, compared with individual treatments): synergistic activity
- Growth % [10]: −40.69%
- Growth % (HCT-15 (Colon Cancer)): −42.04%
- Growth % (LOX IMVI (Melanoma) [11]): −76.78%
- IC50 (A549 (lung)): 8.05 ± 0.24 µM
- IC50 (KB3-1 (cervix)): 7.63 ± 0.38 µM
- IC50 [12]: > 50 µM
- IC50 [13]: 0.57 to 7.8 µM

Reference: PMC9570594, “Development of Novel Pyridine-Thiazole Hybrid Molecules as Potential Anticancer Agents” (Molecules, 2022)
